Test results as given in US9801815B2, “Galenical form for the administration of triptans by buccal transmucous means” (priority 2008, dated 2017).

Legend:
[1] = dissolution of Sumatriptan in ethanol; assay type: physicochemical; conditions: 2 mg, 4 mg or 6 mg of Sumatriptan for 0.75 ml of ethanol at 35%
Excerpt: This coefficient can be modulated based on the degree of alcohol and the water/ethanol ratio that is used.

[2] = administered via the digestive tract; cited from earlier work
[3] = intra-nasal, 20 mg (nasal spray, Imigrane); cited from earlier work
[4] = tested on: acute Cluster Headache attack; conditions: subcutaneous injection, single dosage of 6 mg, mean delay of 15 minutes; cited from earlier work

- dissolution in ethanol [1]: complete dissolution
Structure (SMILES): CNS(=O)(=O)Cc1ccc2[nH]cc(CCN(C)C)c2c1 [Sumatriptan]
- mean volume of theoretical distribution in the human body [2]: 200 L
- residual bioavailability [2]: less than 14 % of the administered dose
- mean bioavailability of the administered dose [3]: ≤ 10%
- remission of the acute Cluster Headache attack [4]: 75%
